Like-named read-outs stand apart in the source and are kept apart here.

These results are taken from patent US6630449B2, “Method for reducing the effect of nicotine addiction and dependancy” (priority 2000, dated 2003).

Assay [1] has as its system smoker (craving for nicotine). Kind of assay: Treatment of smokers with corticotrophin injection to reduce craving for nicotine (case examples). The class given is in vivo, human. An excerpt: Referring to the FIG. a suitable and preferred process for the treatment of smokers includes nutritional and relaxant supplements, corticotrophin administration, and counseling. On day one, the smoker comes into a clinic for orientation 10. At the time of the first office visit, a medical history is taken and a physical given 12 is taken by the physician, and a determination is made as to whether a given smoker is a satisfactory candidate for treatment 14. […] If the smoker is allowed to participate in the program, the physician will write a prescription of r the needed medications. Then, immediately before the smoker leaves the clinic, a pharmacist fills their prescription for and dispenses to the smoker their supply of nutrition supplements and mild relaxants 16. The next day, day two, the smoker has the first BMS 18. Then on day three the smoker comes back to the clinic and receives the first injection of corticotrophins 20 from the physician. This is the time and place the smoker gives up smoking 22. On day five the smoker participates in a second BMS 24. On day seven, the smoker returns to receive the second injection of corticotrophins 26 from the physician. On day fourteen the smoker, now presumably a former smoker, returns for the last BMS 28. […]

In assay [2] the test system is smokers (craving for nicotine). The following applies: cited from earlier work; for time after first administration at which the effect starts to wear off / duration of nicotine craving relief: after injection.

With Adrenocorticotrophin hormone, the smoking cessation outcome in assay [1] (about 250 pounds, three packs a day, one injection of 160 units with counseling and nutritional supplements, no second injection) is “ceased smoking permanently”; in assay [1] (comparative example, about 170 pounds, over one pack a day, one injection of 160 units, no appropriate counseling), “resumed smoking”. Besides, the “time after first administration at which the effect starts to wear off / duration of nicotine craving relief” value in assay [2] (listed as Corticotrophins) is “fifty and one hundred”; in assay [2] (listed as corticotrophins) it was “About seventy two”. Further, the “effect on craving for nicotine” value in assay [2] (given to smokers intramuscularly) is on record as “dramatically reduce the craving for nicotine”. The “patients who start smoking again” value in assay [2] (one administration (Bourne treatment), after about thirty days) is “thirty to sixty”. Further, the “duration of reduced cravings for nicotine after one administration” value in assay [2] (one administration (Bourne treatment)) is “thirty”.
